Reference: patent US10919903B2, “Nitrogen-containing heterocyclic compounds as FXR modulators” (Hepagene Therapeutics (HK) Limited, priority 2016, dated 2021)

Columns and labels:
FXR = target: T1, FXR (Homo sapiens, UniProt Q96RI1); test: FXR Transactivation Assay (GAL4 luciferase reporter, pBIND-FXR in HEK293T); assay type: cell-based; conditions: HEK293T cells
T1 construct: expressed in transfected cells; host or cells: HEK293T
T1 sequence (Q96RI1 1-486): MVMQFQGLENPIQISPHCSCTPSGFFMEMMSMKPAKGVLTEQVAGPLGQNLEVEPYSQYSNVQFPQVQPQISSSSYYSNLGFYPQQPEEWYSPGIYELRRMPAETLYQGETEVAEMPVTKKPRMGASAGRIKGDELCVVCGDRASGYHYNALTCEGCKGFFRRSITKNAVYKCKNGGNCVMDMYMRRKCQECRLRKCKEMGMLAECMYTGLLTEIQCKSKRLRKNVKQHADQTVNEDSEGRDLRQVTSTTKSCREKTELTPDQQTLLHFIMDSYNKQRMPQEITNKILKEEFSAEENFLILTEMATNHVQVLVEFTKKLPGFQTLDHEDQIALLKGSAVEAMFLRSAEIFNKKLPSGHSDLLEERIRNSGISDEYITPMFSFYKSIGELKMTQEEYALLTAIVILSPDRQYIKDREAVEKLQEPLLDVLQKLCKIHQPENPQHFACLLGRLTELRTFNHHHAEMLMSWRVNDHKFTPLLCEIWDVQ
Protocol: FXR Transactivation Assay
pGL4.35 [luc2P/9XGAL4 UAS/Hygro]
Steady-Glo™ Luciferase Assay System
GW4064 as a positive control
(§1) • 1. Hek293T cells were plated at 1.1*10^6/ml into a 100 mm dish. • 2. […] Cells were incubated at 37° C. under 5% CO2 atmosphere. • 3. All of compounds were 3-fold serial diluted from 10 mM stock for 10 doses in DMSO. • 4. Transfer compound dilutions into 384 well assay plates using liquid workstation. • 5. Seed 25 ul HEK293T cells into 384 well assay plate (prepared step 4) at 0.6*10^5/ml. Cells were incubated at 37° C. under 5% CO2 atmosphere overnight. • 6. Add 25 ul steady-Glo™ Luciferase Assay Reagent into each well of 384-well assay plate. • 7. […] Calculate EC50 by fitting % Activity values and log of compound concentrations to nonlinear regression (dose response−variable slope) with Graphpad 5.0. FXR Coactivator Assay Reagents: LanthaScreen™ TR-FRET Farnesoid X Receptor Coactivator Assay GW4064 as a positive control Process: • 1. All of compounds were 3-fold serial diluted from 10 mM stock for 10 doses in DMSO. • 2. Dilute each 100× agonist serial dilution to 2× using Complete Coregulator buffer G. • 3. Transfer 10 μl of each of the 2× agonist serial dilutions to 384 well assay plates. • 4. Add 5 μl of 4×FXR-LBD to 384 well assay plates. • 5. […] Incubate at room temperature protected from light. • 7. […] Calculate EC50 by fitting % Activity values and log of compound concentrations to nonlinear regression (dose response−variable slope) with Graphpad 5.0.

FXR-LBD = target: T2, FXR-LBD (Homo sapiens, UniProt Q96RI1); test: FXR Coactivator Assay (LanthaScreen TR-FRET); assay type: biochemical
T2 construct: Add 5 μl of 4×FXR-LBD to 384 well assay plates; purchased
T2 sequence (Q96RI1 262-486 limits assumed): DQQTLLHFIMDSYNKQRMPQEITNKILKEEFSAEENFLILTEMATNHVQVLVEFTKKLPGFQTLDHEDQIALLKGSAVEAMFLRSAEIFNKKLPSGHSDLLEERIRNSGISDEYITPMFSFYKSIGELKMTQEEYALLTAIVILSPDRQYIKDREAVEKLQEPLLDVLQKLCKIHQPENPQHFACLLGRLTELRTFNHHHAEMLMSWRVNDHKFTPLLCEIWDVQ
Protocol: as §1

Compound	EC50 (FXR) [nM]	EC50 (FXR-LBD) [nM]
2-(4-[[3-(2,6-Dichlorophenyl)-5-(propan-2-yl)-1,2-oxazol-4-yl]methyl]piperazin-1-yl)-1-benzofuran-5-carboxylic acid [Compound X-01]	401 to 5000	
COc1cc(C(=O)O)cc2sc(N3CCN(Cc4c(-c5c(Cl)cccc5Cl)noc4C(C)C)C(C(C)C)C3)nc12 (racemic) [II-29]	401 to 5000	
COc1cc(C(=O)O)cc2sc(N3CCN(Cc4c(-c5c(Cl)cccc5Cl)noc4C(C)C)C4CCCCC43)nc12 (racemic) [II-39]	101 to 400	
COc1cc(C(=O)O)cc2sc(N3CCN(Cc4c(C(C)C)cnn4-c4c(Cl)cccc4Cl)CC3)nc12 [II-03, 2-(4-[[1-(2,6-Dichlorophenyl)-4-(propan-2-yl)-1H-pyrazol-5-yl]methyl]piperazin-1-yl)-4-methoxy-1,3-benzothiazole-6-carboxylic acid]	101 to 400	10 to 100
COc1cc(C(=O)O)cc2sc(N3CCN(Cc4c(-c5c(Cl)cccc5Cl)noc4C(C)C)CC3CO)nc12 (centres unmarked) [II-07, 2-(4-[[3-(2,6-Dichlorophenyl)-5-(propan-2-yl)-1,2-oxazol-4-yl]methyl]-2-(hydroxymethyl)piperazin-1-yl)-4-methoxy-1,3-benzothiazole-6-carboxylic acid]	401 to 5000	
COc1cc(C(=O)O)cc2sc(N3CCN(Cc4c(-c5c(Cl)cccc5Cl)noc4C4CC4)CC3C)nc12 (centres unmarked) [II-11]	101 to 400	10 to 100
COc1cc(C(=O)O)cc2sc(N3CCN(Cc4c(-c5c(Cl)cccc5Cl)noc4C4CC4)CC3C)nc12 (centres unmarked) [II-13]	10 to 100	10 to 100
COc1cc(C(=O)O)cc2sc(N3CCN(Cc4c(C(C)C)cnn4-c4c(Cl)cccc4Cl)CC3C)nc12 (centres unmarked) [II-14]	401 to 5000	
COc1cc(C(=O)O)cc2sc(N3CCN(Cc4c(C(C)C)cnn4-c4c(Cl)cccc4Cl)CC3C)nc12 (centres unmarked) [II-15]	10 to 100	
COc1cc(C(=O)O)cc2sc(N3CCN(Cc4c(-c5c(Cl)cccc5Cl)noc4C(C)C)CC3(C)C)nc12 [II-16]	101 to 400	10 to 100
COc1cc(C(=O)O)cc2sc(N3CCN(Cc4c(-c5c(Cl)cccc5Cl)noc4C(C)C)CC34CC4)nc12 [II-17]	401 to 5000	
CCC1CN(Cc2c(-c3c(Cl)cccc3Cl)noc2C(C)C)CCN1c1nc2c(OC)cc(C(=O)O)cc2s1 (centres unmarked) [II-18]	10 to 100	10 to 100
CCC1CN(c2nc3c(OC)cc(C(=O)O)cc3s2)CCN1Cc1c(-c2c(Cl)cccc2Cl)noc1C(C)C (centres unmarked) [II-20]	101 to 400	10 to 100
CCC1CN(c2nc3c(OC)cc(C(=O)O)cc3s2)CCN1Cc1c(-c2c(Cl)cccc2Cl)noc1C1CC1 (centres unmarked) [II-21]	101 to 400	
COc1cc(C(=O)O)cc2sc(N3CCN(Cc4c(-c5c(Cl)cccc5Cl)noc4C(C)C)C(C)(C)C3)nc12 [II-22, 2-(4-[[3-(2,6-Dichlorophenyl)-5-(propan-2-yl)-1,2-oxazol-4-yl]methyl]-3,3-dimethylpiperazin-1-yl)-4-methoxy-1,3-benzothiazole-6-carboxylic acid]	101 to 400	10 to 100
COc1cc(C(=O)O)cc2sc(N3CCN(Cc4c(-c5c(Cl)cccc5Cl)noc4C4CC4)C(C)(C)C3)nc12 [II-23]	401 to 5000	
COc1cc(C(=O)O)cc2sc(N3CCN(Cc4c(-c5c(Cl)cccc5Cl)noc4C(C)C)C(C)C3)nc12 (centres unmarked) [II-24]	10 to 100	10 to 100
COc1cc(C(=O)O)cc2sc(N3CCN(Cc4c(-c5c(Cl)cccc5Cl)noc4C4CC4)C(C)C3)nc12 (centres unmarked) [II-25]	101 to 400	

Compound	EC50 (FXR) [nM]	EC50 (FXR-LBD) [nM]
COc1cc(C(=O)O)cc2sc(N3CCN(Cc4c(-c5c(Cl)cccc5Cl)noc4C(C)C)C4(CC4)C3)nc12 [II-30]	101 to 400	10 to 100
COc1cc(C(=O)O)cc2sc(N3C4CCC3CN(Cc3c(-c5c(Cl)cccc5Cl)noc3C3CC3)C4)nc12 [II-36]	10 to 100	
COc1cc(C(=O)O)cc2sc(N3CCCN(Cc4c(-c5c(Cl)cccc5Cl)noc4C(C)C)CC3)nc12 [II-40]	101 to 400	10 to 100
COc1cc(C(=O)O)cc2sc(N3CCC(Cc4c(-c5c(Cl)cccc5Cl)noc4C(C)C)CC3)nc12 [II-43]	101 to 400	10 to 100
COc1cc(C(=O)O)cc2sc(N3CCC(Cc4c(C(C)C)cnn4-c4c(Cl)cccc4Cl)CC3)nc12 [II-44]	401 to 5000	
COc1cc(C(=O)O)cc2sc(N3CCC(Cc4c(-c5c(Cl)cccc5Cl)noc4C(C)C)C[C@H]3C)nc12 (stereo partly drawn) [II-45, 2-((2R)-4-((3-(2,6-Dichlorophenyl)-5-isopropylisoxazol-4-yl)methyl)-2-methylpiperidin-1-yl)-4-methoxybenzo[d]thiazole-6-carboxylic acid]	10 to 100	
COc1cc(C(=O)O)cc2sc(N3CC=C(Cc4c(-c5c(Cl)cccc5Cl)noc4C4CC4)C[C@H]3C)nc12 [II-46, 2-[(2R)-4-[[5-Cyclopropyl-3-(2,6-dichlorophenyl)-1,2-oxazol-4-yl]methyl]-2-methyl-1,2,3,6-tetrahydropyridin-1-yl]-4-methoxy-1,3-benzothiazole-6-carboxylic acid]		10 to 100
COc1cc(C(=O)O)cc2sc(C3CCN(Cc4c(-c5c(Cl)cccc5Cl)noc4C(C)C)CC3)nc12 [II-47, 2-(1-((3-(2,6-Dichlorophenyl)-5-isopropylisoxazol-4-yl)methyl)piperidin-4-yl)-4-methoxybenzo[d]thiazole-6-carboxylic acid]		101 to 400
COc1cc(C(=O)O)cc2sc(N3CCC(Cc4c(-c5c(Cl)cncc5Cl)noc4C4CC4)CC3)nc12 [II-49]	401 to 5000	
COc1cc(C(=O)O)cc2sc(N3CCC(Cc4c(-c5ccccc5OC(F)(F)F)noc4C4CC4)CC3)nc12 [II-50]	10 to 100	
CC(C)c1onc(-c2c(Cl)cccc2Cl)c1CC1CCN(c2nc3ccc(C(=O)O)cc3s2)CC1 [III-08]	401 to 5000	
Cc1cc(C(=O)O)cc2sc(N3CCC(Cc4c(C(C)C)cnn4-c4c(Cl)cccc4Cl)CC3)nc12 [IV-10]	101 to 400	
COc1cc(C#N)cc2sc(N3CCN(Cc4c(-c5c(Cl)cccc5Cl)noc4C(C)C)CC3)nc12 [IX-01, 2-(4-((3-(2,6-Dichlorophenyl)-5-isopropylisoxazol-4-yl)methyl)piperazin-1-yl)-4-methoxybenzo[d]thiazole-6-carbonitrile]	401 to 5000	
COc1cc(-c2nnn[nH]2)cc2sc(N3CCN(Cc4c(-c5c(Cl)cccc5Cl)noc4C(C)C)CC3)nc12 [IX-02, 3-(2,6-Dichlorophenyl)-5-isopropyl-4-((4-(4-methoxy-6-(1H-tetrazol-5-yl)benzo[d]thiazol-2-yl)piperazin-1-yl)methyl)isoxazole]	401 to 5000	
CC(C)c1onc(-c2c(Cl)cccc2Cl)c1CC1CCN(c2nc3c(F)cc(C(=O)O)cc3s2)CC1 [VI-11]	401 to 5000	
C[C@@H]1CN(Cc2c(-c3c(Cl)cccc3Cl)noc2C2CC2)CCN1c1nc2c(OC(F)(F)F)cc(C(=O)O)cc2s1 [VII-04, 2-[(2R)-4-[[5-Cyclopropyl-3-(2,6-dichlorophenyl)-1,2-oxazol-4-yl]methyl]-2-methylpiperazin-1-yl]-4-(trifluoromethoxy)-1,3-benzothiazole-6-carboxylic acid]	10 to 100	
COc1cc(C(N)=O)cc2sc(N3CCN(Cc4c(-c5c(Cl)cncc5Cl)noc4C4CC4)C[C@H]3C)nc12 [VIII-03, 2-[(2R)-4-[[5-Cyclopropyl-3-(3,5-dichloropyridin-4-yl)-1,2-oxazol-4-yl]methyl]-2-methylpiperazin-1-yl]-4-methoxy-1,3-benzothiazole-6-carboxamide]	101 to 400	
COc1cc(C(N)=O)cc2nc(N3CCN(Cc4c(-c5c(Cl)cccc5Cl)noc4C4CC4)C[C@@H]3C)sc12 [VIII-04, (S)-2-(4-((5-Cyclopropyl-3-(2,6-dichlorophenyl)isoxazol-4-yl)methyl)-2-methylpiperazin-1-yl)-7-methoxybenzo[d]thiazole-5-carboxamide]	401 to 5000	
